Experiment [1] concerns the target T1, estrogen receptor alpha (ESR1) (Homo sapiens, UniProt P03372).
T1 construct: endogenous in cells; host or cells: MCF7 breast cancer cells
T1 sequence (P03372 1-595): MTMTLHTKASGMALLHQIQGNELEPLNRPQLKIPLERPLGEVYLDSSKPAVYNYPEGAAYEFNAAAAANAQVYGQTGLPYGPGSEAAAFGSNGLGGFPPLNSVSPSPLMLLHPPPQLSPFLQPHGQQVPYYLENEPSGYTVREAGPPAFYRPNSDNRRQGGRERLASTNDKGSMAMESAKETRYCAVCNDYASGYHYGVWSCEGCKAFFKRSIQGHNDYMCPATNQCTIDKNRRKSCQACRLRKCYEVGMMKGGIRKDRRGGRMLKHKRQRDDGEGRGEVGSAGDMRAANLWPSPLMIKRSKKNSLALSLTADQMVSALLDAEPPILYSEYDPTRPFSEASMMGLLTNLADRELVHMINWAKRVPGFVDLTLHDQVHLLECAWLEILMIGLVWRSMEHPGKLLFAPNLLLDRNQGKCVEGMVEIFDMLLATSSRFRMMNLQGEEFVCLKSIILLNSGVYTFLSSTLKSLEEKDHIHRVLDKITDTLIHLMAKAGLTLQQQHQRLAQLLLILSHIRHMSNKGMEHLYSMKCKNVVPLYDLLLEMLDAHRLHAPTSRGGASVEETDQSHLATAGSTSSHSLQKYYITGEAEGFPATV
Description: Breast Cancer Cell ERa High Content Fluorescence Imaging Degradation Assay (Example 901). Particulars: MCF7 breast cancer cells, 4 hours, plateau of the maximal effect. The format is cell-based. The method, boiled down:
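MCF7 cells in phenol red-free RPMI with 10% charcoal-stripped FBS, exposed to compound at 0.05–835 nM (10-point, 1.8×, duplicate; 0.84% DMSO) for 4 h at 37 °C. Fixed cells immunostained for ESR1 (F10 mAb, Alexa 488) with Hoechst nuclear mask; nuclear ESR1 intensity imaged per cell. DMSO and 5 nM fulvestrant set 0%/100%; EC50 and Sinf by robust fit.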

A further experiment deals with MCF7 cells. Nature of the experiment: In vitro cell proliferation assays (Examples 902 and 903), MCF7. The format is cell-based. Particulars: read-out: ER-alpha MCF7 HCS (EC50).
Setting [2] is: Table 1a, DMSO and Fulvestrant define 0% and 100% changes in ESR1.

As a reminder, the pEC50 is the EC50 on a negative log10 scale, so that one unit is a factor of ten.

pEC50: −log10 of the molar value. Like-named read-outs stand apart in the source and are kept apart here.

As to `C[C@@H]1Cc2c([nH]c3cccc(F)c23)[C@@H](c2c(F)cc([C@H](O)C3CN(CCCF)C3)cc2F)N1CC(F)(F)CO` [Compound 143, 3-((1R,3R)-1-(2,6-difluoro-4-((R)-(1-(3-fluoropropyl)azetidin-3-yl)(hydroxy)methyl)phenyl)-5-fluoro-3-methyl-3,4-dihydro-1H-pyrido[3,4-b]indol-2(9H)-yl)-2,2-difluoropropan-1-ol], the “ER-alpha MCF7 HCS (S inf)” value in experiment [1] (setting [2]) is reported as −101%. For the same molecule, the pEC50 in the experiment with MCF7 cells (Homo sapiens, MCF7, Table 1a) was 10.46.
In the same order, the values of `C[C@@H]1Cc2c([nH]c3cccc(F)c23)[C@@H](c2c(F)cc([C@@H](O)C3CN(CCCF)C3)cc2F)N1CC(F)(F)CO` [Compound 144, 3-((1R,3R)-1-(2,6-difluoro-4-((S)-(1-(3-fluoropropyl)azetidin-3-yl)(hydroxy)methyl)phenyl)-5-fluoro-3-methyl-3,4-dihydro-1H-pyrido[3,4-b]indol-2(9H)-yl)-2,2-difluoropropan-1-ol] are −101% and 10.55.
On to `C[C@@H]1Cc2c([nH]c3ccccc23)[C@@H](c2c(F)cc(C(N)C3CN(CCCF)C3)cc2F)N1CC(F)(F)CO` (stereo partly drawn) [Compound 145, 3-((1R,3R)-1-(4-(amino(1-(3-fluoropropyl)azetidin-3-yl)methyl)-2,6-difluorophenyl)-3-methyl-3,4-dihydro-1H-pyrido[3,4-b]indol-2(9H)-yl)-2,2-difluoropropan-1-ol], for which the “ER-alpha MCF7 HCS (S inf)” value in experiment [1] (setting [2]) is −103%. Also, in the experiment on MCF7 cells (Homo sapiens, MCF7, Table 1a), the pEC50 is 10.14.
The corresponding values for `C[C@@H]1Cc2c([nH]c3ccccc23)[C@@H](c2c(F)cc(C(F)(F)C3CN(CCCF)C3)cc2F)N1CC(C)(C)F` [Compound 146, (1R,3R)-1-(4-(Difluoro(1-(3-fluoropropyl)azetidin-3-yl)methyl)-2,6-difluorophenyl)-2-(2-fluoro-2-methylpropyl)-3-methyl-2,3,4,9-tetrahydro-1H-pyrido[3,4-b]indole] are −96.1% and 9.59.
On to `C[C@@H]1Cc2c([nH]c3ccccc23)[C@@H](c2c(F)cc(C(C#N)C3CN(CCCF)C3)cc2F)N1CC(F)(F)CO` (stereo partly drawn) [Compound 150, 2-(4-((1R,3R)-2-(2,2-difluoro-3-hydroxypropyl)-3-methyl-2,3,4,9-tetrahydro-1H-pyrido[3,4-b]indol-1-yl)-3,5-difluorophenyl)-2-(1-(3-fluoropropyl)azetidin-3-yl)acetonitrile], for which the “ER-alpha MCF7 HCS (S inf)” value in experiment [1] (setting [2]) is given as −94%. The pEC50 with MCF7 cells (Homo sapiens, MCF7, Table 1a) is 10.27.
With `C[C@@H]1Cc2c([nH]c3ccccc23)[C@@H](c2c(F)cc(C(O)C3CN(CCC(F)F)C3)cc2F)N1CC(F)(F)CO` (stereo partly drawn) [Compound 153, 3-((1R,3R)-1-(4-((1-(3,3-difluoropropyl)azetidin-3-yl)(hydroxy)methyl)-2,6-difluorophenyl)-3-methyl-3,4-dihydro-1H-pyrido[3,4-b]indol-2(9H)-yl)-2,2-difluoropropan-1-ol], the “ER-alpha MCF7 HCS (S inf)” value in experiment [1] (Table 1b) is on record as −92%. Moreover, in the experiment with MCF7 cells (Homo sapiens, MCF7, Table 1b), the negative-log EC50 (pEC50) was 9.77.
The corresponding values for `C[C@@H]1Cc2c([nH]c3ccccc23)[C@@H](c2c(F)cc([C@@](C)(O)C3CN(CCCF)C3)cc2F)N1CC(F)(F)CO` [Compound 154, 3-((1R,3R)-1-(2,6-difluoro-4-((S)-1-(1-(3-fluoropropyl)azetidin-3-yl)-1-hydroxyethyl)phenyl)-3-methyl-3,4-dihydro-1H-pyrido[3,4-b]indol-2(9H)-yl)-2,2-difluoropropan-1-ol] are −98% and 10.24.
On to `C[C@@H]1Cc2c([nH]c3ccccc23)[C@@H](c2c(F)cc([C@](C)(O)C3CN(CCCF)C3)cc2F)N1CC(F)(F)CO` [Compound 155, 3-((1R,3R)-1-(2,6-difluoro-4-((R)-1-(1-(3-fluoropropyl)azetidin-3-yl)-1-hydroxyethyl)phenyl)-3-methyl-3,4-dihydro-1H-pyrido[3,4-b]indol-2(9H)-yl)-2,2-difluoropropan-1-ol], for which the “ER-alpha MCF7 HCS (S inf)” value in experiment [1] (Table 1b) is recorded as −84%. For the same molecule, the pEC50 in the experiment on MCF7 cells (Homo sapiens, MCF7, Table 1b) is 9.13.
`C[C@@H]1Cc2c([nH]c3ccccc23)[C@@H](c2c(F)cc([C@H](F)C3CN(CCCF)C3)cc2F)N1C[C@H](F)CO` [Compound 158, (S)-3-((1R,3R)-1-(2,6-difluoro-4-((R)-fluoro(1-(3-fluoropropyl)azetidin-3-yl)methyl)phenyl)-3-methyl-3,4-dihydro-1H-pyrido[3,4-b]indol-2(9H)-yl)-2-fluoropropan-1-ol]: the “ER-alpha MCF7 HCS (S inf)” value in experiment [1] (Table 1b) was −101%. Also, the pEC50 in the experiment on MCF7 cells (Homo sapiens, MCF7, Table 1b) is 9.40.
The corresponding values for `C[C@@H]1Cc2c([nH]c3ccccc23)[C@@H](c2c(F)cc([C@@H](F)C3CN(CCCF)C3)cc2F)N1C[C@H](F)CO` [Compound 159, (S)-3-((1R,3R)-1-(2,6-difluoro-4-((S)-fluoro(1-(3-fluoropropyl)azetidin-3-yl)methyl)phenyl)-3-methyl-3,4-dihydro-1H-pyrido[3,4-b]indol-2(9H)-yl)-2-fluoropropan-1-ol] are −99% and 10.09.
Turning to `C[C@@H]1Cc2c([nH]c3ccccc23)[C@@H](c2c(F)cc([C@H](O)C3CN(CCCF)C3)cc2F)N1C[C@@H](F)CF` [Compound 161], the “ER-alpha MCF7 HCS (S inf)” value in experiment [1] (Table 1b) is recorded as −97%. For the same molecule, the pEC50 with MCF7 cells (Homo sapiens, MCF7, Table 1b) was 9.89.
On to `C[C@@H]1Cc2c([nH]c3ccccc23)[C@@H](c2c(F)cc([C@@H](O)C3CN(CCCF)C3)cc2F)N1C[C@H](F)CF` [Compound 162, (S)-(4-((1R,3R)-2-((S)-2,3-difluoropropyl)-3-methyl-2,3,4,9-tetrahydro-1H-pyrido[3,4-b]indol-1-yl)-3,5-difluorophenyl)(1-(3-fluoropropyl)azetidin-3-yl)methanol], for which the “ER-alpha MCF7 HCS (S inf)” value in experiment [1] (Table 1b) was −100%. For the same molecule, the pEC50 with MCF7 cells (Table 1b) was 10.15.
Take `C[C@@H]1Cc2c([nH]c3ccccc23)[C@@H](c2c(F)cc([C@H](O)C3CN(CCCF)C3)cc2F)N1C[C@H](F)CF` [Compound 163]: the “ER-alpha MCF7 HCS (S inf)” value in experiment [1] (Table 1b) is on record as −102%. Besides, the pEC50 in the experiment on MCF7 cells (Homo sapiens, MCF7, Table 1b) was 9.70.
The corresponding values for `CO[C@@H](c1cc(F)c([C@@H]2c3[nH]c4ccc(F)cc4c3C[C@@H](C)N2CC(F)(F)CO)c(F)c1)C1CN(CCCF)C1` [Compound 164, 3-((1R,3R)-1-(2,6-difluoro-4-((R)-(1-(3-fluoropropyl)azetidin-3-yl)(methoxy)methyl)phenyl)-6-fluoro-3-methyl-3,4-dihydro-1H-pyrido[3,4-b]indol-2(9H)-yl)-2,2-difluoropropan-1-ol] are −85% and 9.42.
Take `CO[C@H](c1cc(F)c([C@@H]2c3[nH]c4ccc(F)cc4c3C[C@@H](C)N2CC(F)(F)CO)c(F)c1)C1CN(CCCF)C1` [Compound 165, 3-((1R,3R)-1-(2,6-difluoro-4-((S)-(1-(3-fluoropropyl)azetidin-3-yl)(methoxy)methyl)phenyl)-6-fluoro-3-methyl-3,4-dihydro-1H-pyrido[3,4-b]indol-2(9H)-yl)-2,2-difluoropropan-1-ol]: in experiment [1] (Table 1b), the “ER-alpha MCF7 HCS (S inf)” value is on record as −92%. Further, in the experiment on MCF7 cells (Homo sapiens, MCF7, Table 1b), the pEC50 was 9.77.
As for `C[C@@H]1Cc2c([nH]c3ccccc23)[C@@H](c2c(F)cc(CC3CN(CCCF)C3)cc2F)N1C[C@H](F)CO` [Compound 166, (S)-3-((1R,3R)-1-(2,6-difluoro-4-((1-(3-fluoropropyl)azetidin-3-yl)methyl)phenyl)-3-methyl-3,4-dihydro-1H-pyrido[3,4-b]indol-2(9H)-yl)-2-fluoropropan-1-ol], the “ER-alpha MCF7 HCS (S inf)” value in experiment [1] (Table 1b) is −99%. In addition, the pEC50 in the experiment on MCF7 cells (Homo sapiens, MCF7, Table 1b) was 10.40.

The values are drawn from US20170362228A1, “TETRAHYDRO-PYRIDO[3,4-b]INDOLE ESTROGEN RECEPTOR MODULATORS AND USES THEREOF” (Genentech, Inc., priority 2016, published 2017).
